For data set [1] the following is noted: comparison with existing therapies; cited from earlier work.
In the next data set the test system is E2. Kind of data set: Clinical experiment: E2 level during cetrorelix pamoate treatment. It counts as in vivo, human. Here is the method:
(§1) Injection of 60 mg of cetrorelix on days 2 and 28 of the menstrual cycle.

The test system of the next data set is endometrium. Kind of data set: Clinical experiment: endometrium measured by ultrasonics during cetrorelix pamoate treatment. Type of data set: in vivo, human. Here is the method:
as §1

Data set [2] can be described thus: Tolerability of premedication, comparison with existing therapies. Conditions: short treatment period of from 7 to 10 days. Type of data set: in vivo, human.
A further data set relates to myoma. Kind of data set: Hysteroscopic and laparoscopic myoma resection after cetrorelix therapy. Conditions: 2 months after beginning the cetrorelix therapy. Type of data set: in vivo, human. Here is the method: Treatment of a patient with uterine fibrosis, which was operated on. Injection of 60 mg of cetrorelix on days 2 and 28 of the menstrual cycle.
[3] abbreviates: Day 14 after 1st injection 60 mg.
[4] abbreviates: Day 21 after 1st injection 60 mg.
[5] abbreviates: Day 28, day of 2nd injection 60 mg.

Molecules are shown by their SMILES. Non-standard residues stand in square brackets, D forms with d. Residues, ends and D or L forms follow the SMILES beside them. dPhe(4-Cl) = N[C@H](Cc1ccc(Cl)cc1)C(=O)O; d2Nal = N[C@H](Cc1ccc2ccccc2c1)C(=O)O; dCit = NC(=O)NCCC[C@@H](N)C(=O)O; d3Pal = N[C@H](Cc1cccnc1)C(=O)O

Consider `C#C[C@]1(O)CC[C@H]2[C@@H]3CCC4=Cc5oncc5C[C@]4(C)[C@H]3CC[C@@]21C` [Danazol], for which the “side effects / drawbacks of existing therapies” value in data set [1] was “acne, hirsutism and increase in weight”.
As for `CC(=O)N[C@H](Cc1ccc2ccccc2c1)C(=O)N[C@H](Cc1ccc(Cl)cc1)C(=O)N[C@H](Cc1cccnc1)C(=O)N[C@@H](CO)C(=O)N[C@@H](Cc1ccc(O)cc1)C(=O)N[C@H](CCCNC(N)=O)C(=O)N[C@@H](CC(C)C)C(=O)N[C@@H](CCCNC(=N)N)C(=O)N1CCC[C@H]1C(=O)N[C@H](C)C(N)=O` [cetrorelix pamoate] (Ac-[d2Nal][dPhe(4-Cl)][d3Pal]SY[dCit]LRP[dA]-NH2), the E2 was 25 pg/mL with E2 (Day 0, day of 1st injection 60 mg (baseline)); < 5 pg/mL in the data set on E2 (Day 7 after 1st injection 60 mg); 17 pg/mL in the data set on E2 (setting [3]); 40 pg/mL in the data set with E2 (setting [4]); 88 pg/mL in the data set on E2 (setting [5]); 25 pg/mL in the data set on E2 (Day 42, after 2 injections of 60 mg). The E2 was determined as 73 pg/mL in the data set on E2 (Day 55, end of the study) and 114 pg/mL with E2 (Day of operation (07.05.96)). For the same compound, the “endometrial growth during the treatment” value in the data set on endometrium (60 mg on days 2 and 28 of the menstrual cycle, measured by ultrasonics) is reported as “did not exhibit any growth”. For the same compound, the Endometrium with endometrium (Day 7 after 1st injection 60 mg, patient with uterine fibrosis) is on record as 2 mm; with endometrium (setting [3]), “flat/even”; in the data set on endometrium (setting [4]), 3.1 mm; in the data set on endometrium (setting [5]) it was “flat/even”; in the data set with endometrium (Day 42, after 2 injections of 60 mg (Day 0, Day 28)) it was “flat/even”; with endometrium (Day 55, end of the study, after 2 injections of 60 mg), “flat/even”. In addition, the “onset of decrease of the thickness of the endometrial layer” value in the data set with endometrium (after injecting) is on record as “begins to decrease immediately”. In addition, in data set [2], the side effects result is recorded as “no side effects”. The “blood loss at hysteroscopic and laparoscopic myoma resection” value in the data set on myoma was “without any significant blood loss”.

Values taken from patent US6106805A, “Diagnostic composition containing an LH-RH antagonist for hysteroscopy” (Asta Medica Aktiengesellschaft, priority 1996, dated 2000).
